Key:
wild oat = experiment: Test B postemergence herbicide test; format: in vivo, Avena fatua; conditions: scale 0 (no effect) to 100 (complete control)
Outline: (§1)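 After treating 2-leaf paddy plants or 2–18 cm postemergence plants (1 to 4 leaves) with formulated chemical, researchers kept them in a greenhouse for 13–15 days. Effects were judged visually versus controls: 0 indicates none, 100 total control.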

large crabgrass [1] = experiment: Test B pre-/postemergence herbicide test; format: in vivo, Digitaria sanguinalis
Outline: (§2)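 Response was scored visually 13 to 15 days after treatment against untreated greenhouse controls, 0 meaning no effect and 100 complete control. Formulations (solvent mixture plus surfactant) went onto soil after planting, onto foliage of 1- to 4-leaf plants, and onto 2-leaf plants in a flooded paddy set including rice and barnyardgrass.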

ducksalad = experiment: Test B flooded paddy test; format: in vivo, Heteranthera limosa; conditions: 1000 g ai/ha, visual rating, scale 0 to 100 (0 no effect, 100 complete control), 13 to 15 days
Outline: (§3)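 Visual control ratings, 0–100 versus untreated controls, taken after 13 to 15 days in the greenhouse. Blackgrass received a postemergence spray at the 1- to 4-leaf stage (2–18 cm); ducksalad, umbrella sedge and barnyardgrass were flooded-paddy treated at 2 leaves.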

velvetleaf [2] = experiment: Test B pre-/postemergence herbicide test; format: in vivo, Abutilon theophrasti
Outline: as §2

[3] = system: small flower umbrella sedge; experiment: Test B flooded paddy test; format: in vivo, Cyperus difformis; conditions: 1000 g ai/ha, visual rating, scale 0 to 100 (0 no effect, 100 complete control), 13 to 15 days
Outline: as §3

Surinam grass = experiment: Test B pre-/postemergence herbicide test; format: in vivo, Urochloa decumbens
Outline: as §2

pigweed = experiment: Test B pre-/postemergence herbicide test; format: in vivo, Amaranthus retroflexus
Outline: as §2

lambsquarters = experiment: Test B pre-/postemergence herbicide test; format: in vivo, Chenopodium album
Outline: as §2

barnyardgrass [4] = experiment: Test A pre-/postemergence herbicide test; format: in vivo, Echinochloa crus-galli
Outline: (§4)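 Plants are held in greenhouse about ten days after treatment, then compared with untreated controls and scored 0 (no effect) to 100 (complete control). Preemergence dosing is a directed soil spray on sown sandy loam; postemergence dosing is spray to runoff at 2–10 cm height.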

morningglory [5] = experiment: Test A pre-/postemergence herbicide test; format: in vivo, Ipomoea spp.
Outline: as §4

velvetleaf [6] = experiment: Test A pre-/postemergence herbicide test; format: in vivo, Abutilon theophrasti
Outline: as §4

rice [7] = experiment: Test B pre-/postemergence herbicide test; format: in vivo, Oryza sativa; conditions: preemergence
Outline: as §2

wheat = experiment: Test B postemergence herbicide test; format: in vivo, Triticum aestivum; parameters: key to Wheat plant response rating: 0 = no effect, 100 = complete control; conditions: scale 0 (no effect) to 100 (complete control)
Outline: as §1

barnyardgrass [8] = experiment: Test B pre-/postemergence herbicide test; format: in vivo, Echinochloa crus-galli
Outline: as §2

barnyardgrass [9] = experiment: Test B flooded paddy test; format: in vivo, Echinochloa crus-galli; conditions: 1000 g ai/ha, visual rating, scale 0 to 100 (0 no effect, 100 complete control), 13 to 15 days
Outline: as §3

cocklebur = experiment: Test B pre-/postemergence herbicide test; format: in vivo, Xanthium strumarium
Outline: as §2

corn = experiment: Test B pre-/postemergence herbicide test; format: in vivo, Zea mays
Outline: as §2

morningglory [10] = experiment: Test B pre-/postemergence herbicide test; format: in vivo, Ipomoea coccinea
Outline: as §2

large crabgrass [11] = experiment: Test A pre-/postemergence herbicide test; format: in vivo, Digitaria sanguinalis
Outline: as §4

rice [12] = experiment: Test B flooded paddy test; format: in vivo, Oryza sativa; conditions: 1000 g ai/ha, visual rating, scale 0 to 100 (0 no effect, 100 complete control), 13 to 15 days
Outline: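 Postemergence plants were sprayed with formulated test chemicals at 2 to 18 cm height (1- to 4-leaf stage); paddy species were grown to the 2-leaf stage. After 13 to 15 days in a greenhouse, injury was rated visually against untreated controls on a 0–100 scale (0 = no effect, 100 = complete control).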

giant foxtail [13] = experiment: Test A pre-/postemergence herbicide test; format: in vivo, Setaria faberi
Outline: as §4

redroot pigweed = experiment: Test A pre-/postemergence herbicide test; format: in vivo, Amaranthus retroflexus
Outline: as §4

giant foxtail [14] = experiment: Test B pre-/postemergence herbicide test; format: in vivo, Setaria faberi
Outline: as §2

blackgrass = experiment: Test B postemergence herbicide test; format: in vivo, Alopecurus myosuroides; conditions: scale 0 (no effect) to 100 (complete control)
Outline: as §3

[15] = Postemergence, 500 g ai/ha, visual rating after 13 to 15 days
[16] = postemergence, 125 g ai/ha, visual rating
[17] = 500 g ai/ha, visual rating 0-100, 0 no effect, 100 complete control, preemergence
[18] = Postemergence, 500 g ai/ha, visual rating after 13 to 15 days, scale 0 (no effect) to 100 (complete control)
[19] = postemergence, 125 g ai/ha, visual rating, scale 0 (no effect) to 100 (complete control)
[20] = preemergence, 125 g ai/ha, 0 to 100 scale, 0 is no effect, 100 is complete control
[21] = Postemergence, 500 g ai/ha, 0 to 100 scale, 0 no effect, 100 complete control
[22] = Postemergence, 2000 g ai/ha, 0 to 100 scale, 0 no effect, 100 complete control
[23] = Preemergence, 500 g ai/ha, visual rating, 0 to 100 scale (0 no effect, 100 complete control)
[24] = Preemergence, 2000 g ai/ha, 0 to 100 scale, 0 no effect, 100 complete control

## C=CCOC(=O)c1cccc(NC(=O)c2cc(C(C)(C)C)nn2CC)c1C [Compound 94]
Wild oat; [15]
  Plant response rating, Oat, Wild: 10
Wild oat; [16]
  Oat, Wild plant response rating: 10
Large crabgrass [1]; [17]
  Plant response rating, Crabgrass, Large: 20
Large crabgrass [1]; [18]
  Plant response rating, Crabgrass, Large: 10
Large crabgrass [1]; [19]
  Crabgrass, Large plant response rating: 10
Large crabgrass [1]; [20]
  Plant response rating, Crabgrass, Large: 10
ducksalad
  Ducksalad plant response rating: 30
Velvetleaf [2]; [17]
  Plant response rating, Velvetleaf: 0
Velvetleaf [2]; [18]
  Plant response rating, Velvetleaf: 20
Velvetleaf [2]; [19]
  Velvetleaf plant response rating: 10
Velvetleaf [2]; [20]
  Plant response rating, Velvetleaf: 0
[3]
  Sedge, Umbrella plant response rating: 50
Surinam grass; [17]
  Plant response rating, Surinam Grass: 0
Surinam grass; [18]
  Plant response rating, Surinam Grass: 10
Surinam grass; [19]
  Surinam Grass plant response rating: 10
Surinam grass; [20]
  Plant response rating, Surinam Grass: 0
pigweed; [17]
  Plant response rating, Pigweed: 20
pigweed; [18]
  Plant response rating, Pigweed: 30
pigweed; [19]
  Pigweed plant response rating: 10
pigweed; [20]
  Plant response rating, Pigweed: 0
lambsquarters; [17]
  Plant response rating, Lambsquarters: 0
lambsquarters; [18]
  Plant response rating, Lambsquarters: 80
lambsquarters; [19]
  Lambsquarters plant response rating: 50
lambsquarters; [20]
  Plant response rating, Lambsquarters: 0
Barnyardgrass [4]; [21]
  Barnyardgrass plant response rating: 20
Barnyardgrass [4]; [22]
  Plant response rating, Barnyardgrass: 35
Barnyardgrass [4]; [23]
  Barnyardgrass plant response rating: 20
Barnyardgrass [4]; [24]
  Barnyardgrass plant response rating: 65
Morningglory [5]; [21]
  Morningglory plant response rating: 20
Morningglory [5]; [22]
  Plant response rating, Morningglory: 20
Morningglory [5]; [23]
  Morningglory plant response rating: 10
Morningglory [5]; [24]
  Morningglory plant response rating: 10
Velvetleaf [6]; [21]
  Velvetleaf plant response rating: 20
Velvetleaf [6]; [22]
  Plant response rating, Velvetleaf: 25
Velvetleaf [6]; [23]
  Velvetleaf plant response rating: 5
Velvetleaf [6]; Preemergence, 2000 g ai/ha, visual rating, 0 to 100 scale (0 no effect, 100 complete control)
  Velvetleaf plant response rating: 25
Rice [7]; 500 g ai/ha, visual rating 0-100, 0 no effect, 100 complete control
  Plant response rating, Rice: 0
Rice [7]; 125 g ai/ha, 0 to 100 scale, 0 is no effect, 100 is complete control
  Plant response rating, Rice: 0
wheat; [15]
  Plant response rating, Wheat: 10
wheat; [16]
  Wheat plant response rating: 0
Barnyardgrass [8]; [17]
  Plant response rating, Barnyardgrass: 20
Barnyardgrass [8]; [18]
  Plant response rating, Barnyardgrass: 10
Barnyardgrass [8]; [19]
  Barnyardgrass plant response rating: 10
Barnyardgrass [8]; [20]
  Plant response rating, Barnyardgrass: 10
Barnyardgrass [9]
  Barnyardgrass plant response rating: 20
cocklebur; [17]
  Plant response rating, Cocklebur: 0
cocklebur; [18]
  Plant response rating, Cocklebur: 50
cocklebur; [19]
  Cocklebur plant response rating: 20
cocklebur; [20]
  Plant response rating, Cocklebur: 0
corn; [17]
  Plant response rating, Corn: 0
corn; [18]
  Plant response rating, Corn: 20
corn; [19]
  Corn plant response rating: 20
corn; [20]
  Plant response rating, Corn: 0
Morningglory [10]; [17]
  Plant response rating, Morningglory: 0
Morningglory [10]; [18]
  Plant response rating, Morningglory: 10
Morningglory [10]; [19]
  Morningglory plant response rating: 10
Morningglory [10]; [20]
  Plant response rating, Morningglory: 0
Large crabgrass [11]; [21]
  Crabgrass, Large plant response rating: 10
Large crabgrass [11]; [22]
  Plant response rating, Crabgrass, Large: 30
Large crabgrass [11]; [23]
  Crabgrass, Large plant response rating: 35
Large crabgrass [11]; [24]
  Crabgrass, Large plant response rating: 60
Rice [12]
  Rice plant response rating: 10
Giant foxtail [13]; [21]
  Foxtail, Giant plant response rating: 10
Giant foxtail [13]; [22]
  Plant response rating, Foxtail, Giant: 15
Giant foxtail [13]; [23]
  Foxtail, Giant plant response rating: 45
Giant foxtail [13]; [24]
  Foxtail, Giant plant response rating: 65
Redroot pigweed; [21]
  Pigweed plant response rating: 25
Redroot pigweed; [22]
  Plant response rating, Pigweed: 30
Redroot pigweed; [23]
  Pigweed plant response rating: 35
Redroot pigweed; [24]
  Pigweed plant response rating: 85
Giant foxtail [14]; [17]
  Plant response rating, Foxtail, Giant: 30
Giant foxtail [14]; [18]
  Plant response rating, Foxtail, Giant: 10
Giant foxtail [14]; [19]
  Foxtail, Giant plant response rating: 10
Giant foxtail [14]; [20]
  Plant response rating, Foxtail, Giant: 10
blackgrass; [15]
  Plant response rating, Blackgrass: 10
blackgrass; [16]
  Blackgrass plant response rating: 0

Source: patent publication US20060069132A1, “Azolecarboxamide herbicides” (priority 2004, published 2006)
